The results in this text go back to patent US20220194960A1, “WEE1 INHIBITOR AND PREPARATION AND USE THEREOF” (SHOUYAO HOLDINGS (BEIJING) CO., LTD., priority 2019, published 2022).

In assay [1] the target is T1, WEE1 kinase (Homo sapiens, UniProt P30291).
T1 construct: purchased Carna bioscience
As to the kind of experiment: WEE1 kinase binding assay (LanthaScreen EU). Conditions: WEE1 kinase 20 nM, Kinase Tracer 178 100 nM, 23° C. for 60 min, read-out: WEEI (IC50). How it is done:
1. Assay for WEE1 Kinase Inhibitory Activity (IC50) on Compounds
The WEE1 kinase binding assay was established and optimized with LanthaScreen EU for the determination of the activity of compounds. 10 mM compounds were subjected to ten-fold gradient dilution in 100% DMSO (6 concentrations in total), 5 μL of diluent from each concentration was added to 45 μL of reaction buffer (50 mM HEPES (4-hydroxyethylpiperazine ethanesulfonic acid), pH 7.5, 10 mM MgCl2 (magnesium chloride), 1 mM EGTA (ethylene glycol diethyl ether diamine tetraacetic acid), 0.01% Brij-35 (polyoxyethylene lauryl ether)) for blending. On this basis, 2 μL diluent from each concentration was added to 48 μL of reaction buffer for blending as a 4*compound (final concentrations of 1000, 100, 10, 1, 0.1, 0 nM) for later use. Reaction buffer was used to formulate 4*WEE1 kinase (purchased from Carna bioscience, a final concentration of 20 nM), 4*LanthaScreen EU-anti-GST Antibody (purchased from Invitrogen, PV5594, a fuel concentration of 2 nM), and 4*Kinase Tracer 178 (purchased from Invitrogen, PV5593, a final concentration of 100 nM). 2.5 μL of 4*compound was added to a 384-well plate (OptiPlate-384, purchased from PerkinElmer), followed by adding 2.5 μL of 4*WEE1 kinase, standing for 5 min at room temperature. Then 2.5 μL of 4*LanthaScreen EU-anti-GST Antibody was added followed by 2.5 μL of 4*Kinase Tracer 178. The reaction was started by centrifugation (a total reaction volume of 10 μL). The 384-well plate was wrapped with tin foil paper and placed in an incubator at 23° C. for 60 min. Fluorescence values (excitation at 320 nm, detecting emitted light at 665 nm and 615 nm, and a ratio of the two as enzyme activity) were read on Envision (purchased from PerkinElmer). The enzyme activity of each compound was measured at 6 concentrations, and the IC50 value of the compound was calculated using GraFit6.0 software (Erithacus Software).
The aforementioned “*” refers to multiplying, representing multiples.
(In general: In TR-FRET formats the signal depends on donor and acceptor labels being close together.)

For assay [2], the system named is Human non-small cell lung cancer cells NCI-H1299. As to the kind of experiment: NCI-H1299 cell proliferation inhibition (CellTiter-Glo). Conditions: cultured 3 days, table head NCI-H1975, method NCI-H1299. The assay is classed as cell-based. How it is done: 2. Determination of Cell Proliferation Activity of Compounds:
NCI-H1299 cell proliferation inhibition screening method was established using CellTiter-fib detection reagent from Promega.
Human non-small cell lung cancer cells NCI-H1299 were cultured in 25 cm^2 or 75 cm^2 plastic tissue culture flasks (Corning) filled with DMEM (Gibco) medium supplemented with 10% fetal bovine serum (Hyclone) under 37° C., 95% air, and 5% CO2, and subcultured 2-3 times a week.
Cells were seeded at 1000 cells/well in a 96-well cell culture plate (Corning), 195 μL/well, and cultured under 37° C., 95% air, and 5% CO2. The next day test compound was added: 10 mM compounds (dissolved in DMSO) were subjected to 3-fold gradient dilution in DMSO, 2 μL of diluent from each concentration was added to 48 μL of serum-fret medium, and finally 5 μL of the diluted compound was added to the plate seeded with cells. The final concentration of DMSO in the cell culture was 0.1% and the foul concentration of the test compound was 0.3 nM-10 μM. The cells were cultured at 37° C. for 3 days.

T1 sequence (P30291 whole entry): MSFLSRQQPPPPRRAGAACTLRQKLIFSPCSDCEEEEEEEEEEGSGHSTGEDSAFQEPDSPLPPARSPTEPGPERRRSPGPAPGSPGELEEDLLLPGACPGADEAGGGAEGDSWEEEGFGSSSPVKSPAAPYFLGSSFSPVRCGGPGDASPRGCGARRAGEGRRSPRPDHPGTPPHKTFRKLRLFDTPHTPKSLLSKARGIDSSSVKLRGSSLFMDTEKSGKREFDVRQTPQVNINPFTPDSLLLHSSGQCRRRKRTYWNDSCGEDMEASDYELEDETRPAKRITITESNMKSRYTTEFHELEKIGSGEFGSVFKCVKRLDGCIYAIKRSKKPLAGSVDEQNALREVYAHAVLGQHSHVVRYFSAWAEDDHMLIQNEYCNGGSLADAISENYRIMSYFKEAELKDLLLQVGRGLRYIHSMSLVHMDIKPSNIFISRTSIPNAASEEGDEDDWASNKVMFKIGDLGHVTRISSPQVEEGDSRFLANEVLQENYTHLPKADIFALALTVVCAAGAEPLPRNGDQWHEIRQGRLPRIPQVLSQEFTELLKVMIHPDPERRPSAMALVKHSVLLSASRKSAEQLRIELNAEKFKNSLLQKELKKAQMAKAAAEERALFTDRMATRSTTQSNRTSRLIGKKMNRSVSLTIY

As to `CN1CCN(C2CCN(c3ccc(Nc4ncc5cc(C6CC6)n(-c6cccc(N=S(C)(C)=O)n6)c5n4)cc3F)CC2)CC1` [Example 48, ((6-(2-((3-fluoro-4-(4-(4-methylpiperazin-1-yl)piperidin-1-yl)phenyl)amino)-6-cyclopropyl-7H-pyrrolo[2,3-d]pyrimidin-7-yl)pyridin-2-yl)imino)dimethyl-λ^6-sulfanone], the IC50 (in general, the point on the concentration scale where inhibition reaches its midpoint) in assay [1] came out at 0.8 nM; in assay [2] (Homo sapiens, 72 h) it was 42 nM.

Regarding `CN1CCN(c2ccc(Nc3ncc4c(F)c(C5CC5)n(-c5cccc(N=S(C)(C)=O)n5)c4n3)cc2)C(CO)C1` (stereo not shown) [Example 28], the IC50 in assay [1] was found to be 1.3 nM; in assay [2] it was 40 nM.

For the compound `CN1[C@@H]2CC[C@H]1CN(c1ccc(Nc3ncc4cc(C5CC5)n(-c5cccc(N=S(C)(C)=O)n5)c4n3)cc1)C2` [Example 81, ((6-(6-cyclopropyl-2-((4-((1R,5S)-8-methyl-3,8-diazabicyclo[3.2.1]octan-3-yl)phenyl)amino)-7H-pyrrolo[2,3-d]pyrimidin-7-yl)pyridin-2-yl)imino)dimethyl-λ^6-sulfanone], the IC50 was 0.33 nM in assay [1] and 38 nM in assay [2] (Homo sapiens, 72 h).

`CN1[C@@H]2CC[C@H]1CN(c1ccc(Nc3ncc4c(F)c(C5CC5)n(-c5cccc(N=S(C)(C)=O)n5)c4n3)cc1)C2` [Example 82, ((6-(6-cyclopropyl-5-fluoro-2-((4-((1R,5S)-8-methyl-3,8-diazabicyclo[3.2.1]octan-3-yl)phenyl)amino)-7H-pyrrolo[2,3-d]pyrimidin-7-yl)pyridin-2-yl)imino)dimethyl-Ab-sulfanone]: the IC50 in assay [1] worked out at 0.58 nM; in assay [2] (Homo sapiens, 72 h) it was 64 nM.

For the compound `CCCc1cc2cnc(Nc3ccc(N4CCN(C)CC4)cc3)nc2n1-c1cccc(N=S(C)(C)=O)n1` [Example 4, ((6-(2-((4 (4-methylpiperazin-1-yl)phenyl)amino)-6-propyl-7H-pyrrolo[2,3-d]pyrimidin-7-yl)pyridin-2-yl)imino)dimethyl-λ^6-sulfanone], the IC50 was found to be 0.76 nM in assay [1] and 33 nM in assay [2] (Homo sapiens, 72 h).

With `CCCc1cc2cnc(Nc3ccc(N4CCN(C)CC4)cn3)nc2n1-c1cccc(N=S(C)(C)=O)n1` [Example 110, ((6-(6-propyl-2-((5-(4-methylpiperazin-1-yl)pyridin-2-yl)amino)-7H-pyrrolo[2,3-d]pyrimidin-7-yl)pyridin-2-yl)imino)dimethyl-λ^6-sulfanone], the IC50 in assay [1] was determined as 0.69 nM; in assay [2], 88 nM.

`CCCc1cc2cnc(Nc3ccc(N4CCN(C)CC4)cc3)nc2n1-c1cccc(N=S(C)(C)=O)n1` [Example 7, ((6-(6-propyl-2-((4-(4-methylpiperazin-yl)phenyl)amino)-7H-pyrrolo[2,3-d]pyrimidin-7-yl)pyridin-2-yl)imino)dimethyl-λ^6-sulfanone]: the IC50 in assay [1] was 0.92 nM; in assay [2], 42 nM.

For `Cc1cc2cnc(Nc3ccc(N4CCC(N5CCN(C)CC5)CC4)cc3)nc2n1-c1cccc(N=S(C)(C)=O)n1` [Example 150], the IC50 is 0.22 nM in assay [1] and 32 nM in assay [2] (Homo sapiens, 72 h).

With `C=C(C)c1cc2cnc(Nc3ccc(N4CCN(C)CC4)cc3)nc2n1-c1cccc(N=S(C)(C)=O)n1` [Example 135, dimethyl((6-(2-((4-(4-methylpiperazin-1-yl)phenyl)amino)-6-(prop-1-en-2-yl)-7H-pyrrolo[2,3-d]pyrimidin-7-yl)pyridin-2-yl)imino)-λ^6-sulfanone], the IC50 in assay [1] was found to be 0.68 nM; in assay [2] (Homo sapiens, 72 h), 74 nM.

For the compound `CN1CC2(CCN(c3ccc(Nc4ncc5c(F)c(C6CC6)n(-c6cccc(N=S(C)(C)=O)n6)c5n4)cc3)CC2)C1` [Example 86, ((6-(6-cyclopropyl-5-fluoro-2-((4-(2-methyl-2,7-diazaspiro[3.5]nonan-7-yl)phenyl)amino)-7H-pyrrolo[2,3-d]pyrimidin-7-yl)pyridin-2-yl)imino)dimethyl-λ^6-sulfanone], the IC50 amounted to 0.54 nM in assay [1] and 60 nM in assay [2] (Homo sapiens, 72 h).

Take `COc1cc(Nc2ncc3cc(C4CC4)n(-c4cccc(N=S(C)(C)=O)n4)c3n2)ccc1N1CCC(N2CCN(C)CC2)CC1` [Example 87, ((6-(6-cyclopropyl-2-((3-methoxy-4-(4-(4-methylpiperazin-1-yl)piperidin-1-yl)phenyl)amino)-7H-pyrrolo[2,3-d]pyrimidin-7-yl)pyridin-2-yl)imino)dimethyl-λ^6-sulfanone]: the IC50 is 0.98 nM in assay [1] and 90 nM in assay [2] (Homo sapiens, 72 h).

Take `CCc1cc2cnc(Nc3ccc(N4CCN(C)CC4)cc3)nc2n1-c1cccc(N=S(C)(C)=O)n1` [Example 152]: the IC50 in assay [1] came out at 0.2 nM; in assay [2] (Homo sapiens, 72 h), 23 nM.

Regarding `CN(C)CCc1ccc(Nc2ncc3c(F)c(C4CC4)n(-c4ccnc(N=S(C)(C)=O)n4)c3n2)cc1` [Example 32, ((6-(5-fluoro-2-((4-(2-(dimethylamino)ethyl)phenyl)amino)-6-cyclopropyl-7H-pyrrolo[2,3-d]pyrimidin-7-yl)pyrimidin-2-yl)imino)dimethyl-λ^6-sulfanone], the figures for the IC50 in assay [1] and in assay [2] were 0.69 nM and 31 nM, respectively.

For `CS(C)(=O)=Nc1cccc(-n2c(C3CC3)cc3cnc(Nc4ccc(N5CC6CCC(C5)N6)c(F)c4)nc32)n1` [Example 101, ((6-(2-((4-(3,8-diazabicyclo[3.2.1]octan-3-yl)-3-fluorophenyl)amino)-6-cyclopropyl-7H-pyrrolo[2,3-d]pyrimidin-7-yl)pyridin-2-yl)imino)dimethyl-λ^6-sulfanone], the IC50 in assay [1] stood at 0.7 nM; in assay [2] (Homo sapiens, 72 h) it was 66 nM.

As to `CN1CCN(C2CCN(c3ccc(Nc4ncc5c(F)c(C6CC6)n(-c6cccc(N=S(C)(C)=O)n6)c5n4)cc3F)CC2)CC1` [Example 47, ((6-(5-fluoro-2-((3-fluoro-4-(4-(4-methylpiperazin-1-yl)piperidin-1-yl)phenyl)amino)-6-cyclopropyl-7H-pyrrolo[2,3-d]pyrimidin-7-yl)pyridin-2-yl)imino)dimethyl-λ^6-sulfanone], the IC50 in assay [1] came to 0.97 nM; in assay [2] (Homo sapiens, 72 h) it was 63 nM.

As for `CCc1cc2cnc(Nc3ccc(N4CCN(CCN(C)C)CC4)cc3)nc2n1-c1cccc(N=S(C)(C)=O)n1` [Example 155, ((6-(2-((4 (4-(2-(dimethylamino)ethyl)piperazin-1-yl)phenyl)amino)-6-ethyl-7H-pyrrolo[2,3-d]pyrimidin-7-yl)pyridin-2-yl)imino)dimethyl-λ^6-sulfanone], the IC50 is 1.02 nM in assay [1] and 89 nM in assay [2] (Homo sapiens, 72 h).

`CCCc1cc2cnc(Nc3ccc(N4CCC5(CCN(C)CC5)CC4)cc3)nc2n1-c1cccc(N=S(C)(C)=O)n1` [Example 123, ((6-(6-propyl-2-((4-(9-methyl-3,9-diazaspiro[5.5]undecan-3-yl)phenyl)amino)-7H-pyrrolo[2,3-d]pyrimidin-7-yl)pyridin-2-yl)imino)dimethyl-λ^6-sulfanone]: the IC50 in assay [1] turned out to be 0.3 nM; in assay [2], 44 nM.

`CC1(O)CN(N2CCN(c3ccc(Nc4ncc5cc(C6CC6)n(-c6cccc(N=S(C)(C)=O)n6)c5n4)cc3)CC2)C1` [Example 98, ((6-(6-cyclopropyl-2-((4-(4-(3-hydroxy-3-methylazetidin-1-yl)piperazin-1-yl)phenyl)-amino)-7H-pyrrolo[2,3-d]pyrimidin-7-yl)pyridin-2-yl)imino)dimethyl-λ^6-sulfanone]: the IC50 in assay [1] came out at 0.79 nM; in assay [2], 84 nM.

As to `CCc1cc2cnc(Nc3ccc(N4CCC(N5CCN(C)CC5)CC4)cc3)nc2n1-c1cccc(N=S(C)(C)=O)n1` [Example 154, ((6-(6-ethyl-2-((4 (4-(4-methylpiperazin-1-yl)piperidin-1-yl)phenyl)amino)-7H-pyrrolo[2,3-d]pyrimidin-7-yl)pyridin-2-yl)imino)dimethyl-λ^6-sulfanone], the IC50 stood at 0.53 nM in assay [1] and 69 nM in assay [2] (Homo sapiens, 72 h).

As for `CN(C)CCN1CCN(c2ccc(Nc3ncc4cc(C5CC5)n(-c5cccc(N=S(C)(C)=O)n5)c4n3)cc2)CC1` [Example 108], the IC50 in assay [1] turned out to be 0.61 nM; in assay [2] (Homo sapiens, 72 h) it was 70 nM.
